# From patent US20240199649A1 (Biosplice Therapeutics, Inc., priority 2022, published 2024)
# Target: recombinant DYRK1A kinase (Homo sapiens (Human), UniProt Q13627)
# Test: DYRK1A kinase assay (Ser/Thr 18 peptide Z-lyte FRET assay)
# Assay type: biochemical
# Settings: DYRK1A 0.25 μg/mL, ATP 15 μM, Ser/Thr peptide 18 4 μM; one hour at room temperature; 11-point dose-response, duplicate
# Procedure, shortened: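 Z-lyte FRET assay on Ser/Thr 18 peptide, kinase activity read as coumarin/fluorescein emission ratio; compounds incubated 1 h at room temperature, then development reagent 1 h, in duplicate. Phosphorylated and unphosphorylated peptide served as controls; IC50 by non-linear regression of dose-response curves.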
row,IC50 [nM],Compound
1,1.3,"CNc1nc(N[C@@H]2CCN(C(C)=O)CC2(F)F)nn2ccc(-c3ccc4nnn(CC(F)F)c4n3)c12 [Compound 1029, (R)-1-(4-((5-(3-(2,2-Difluoroethyl)-3H-[1,2,3]triazolo[4,5-b]pyridin-5-yl)-4-(methylamino)pyrrolo[2,1-f][1,2,4]triazin-2-yl)amino)-3,3-difluoropiperidin-1-yl)ethan-1-one]"
2,4,"CNc1nc(N[C@H]2CC[C@](C)(O)CC2)nn2ccc(-c3ccc4nnn(CC(F)(F)F)c4n3)c12 [Compound 1031, (1r,4r)-1-Methyl-4-((4-(methylamino)-5-(3-(2,2,2-trifluoroethyl)-3H-[1,2,3]triazolo[4,5-b]pyridin-5-yl)pyrrolo[2,1-f][1,2,4]triazin-2-yl)amino)cyclohexan-1-ol]"
3,2.8,"CNc1nc(N[C@H]2CCN(C(C)=O)C[C@H]2F)nn2ccc(-c3ccc4nnn(CC(F)(F)F)c4n3)c12 [Compound 1032, 1-((3R,4S)-3-Fluoro-4-((4-(methylamino)-5-(3-(2,2,2-trifluoroethyl)-3H-[1,2,3]triazolo[4,5-b]pyridin-5-yl)pyrrolo[2,1-f][1,2,4]triazin-2-yl)amino)piperidin-1-yl)ethan-1-one]"
4,2,"CNc1nc(N[C@H]2CCN(C3COC3)C[C@H]2F)nn2ccc(-c3ccc4nnn(CC(F)(F)F)c4n3)c12 [Compound 1033, N^2-((3R,4S)-3-Fluoro-1-(oxetan-3-yl)piperidin-4-yl)-N^4-methyl-5-(3-(2,2,2-trifluoroethyl)-3H-[1,2,3]triazolo[4,5-b]pyridin-5-yl)pyrrolo[2,1-f][1,2,4]triazine-2,4-diamine]"
5,1.9,"CNc1nc(N[C@@H]2CCN(C)CC2(F)F)nn2ccc(-c3ccc4nnn(CC(F)(F)F)c4n3)c12 [Compound 1034, (R)—N^2-(3,3-Difluoro-1-methylpiperidin-4-yl)-N^4-methyl-5-(3-(2,2,2-trifluoroethyl)-3H-[1,2,3]triazolo[4,5-b]pyridin-5-yl)pyrrolo[2,1-f][1,2,4]triazine-2,4-diamine]"
6,1,"CNc1nc(N[C@@H]2CCN(C3COC3)CC2(F)F)nn2ccc(-c3ccc4nnn(CC(F)(F)F)c4n3)c12 [Compound 1036, (R)—N^2-(3,3-Difluoro-1-(oxetan-3-yl)piperidin-4-yl)-N^4-methyl-5-(3-(2,2,2-trifluoroethyl)-3H-[1,2,3]triazolo[4,5-b]pyridin-5-yl)pyrrolo[2,1-f][1,2,4]triazine-2,4-diamine]"
7,270,"N^4-Methyl-N^2-(1-(oxetan-3-yl)piperidin-4-yl)-5-(pyrazolo[1,5-a]pyridin-5-yl)pyrrolo[2,1-f][1,2,4]triazine-2,4-diamine [Compound 2]"

row,Compound,IC50 [nM]
1,"N^2-(4,4-Difluorocyclohexyl)-N^4-methyl-5-(3-(2,2,2-trifluoroethyl)-3H-[1,2,3]triazolo[4,5-b]pyridin-5-yl)pyrrolo[2,1-f][1,2,4]triazine-2,4-diamine [Compound 1030]",193
